Our source for the residual activity and inhibition values is ChEMBL document CHEMBL4507319 (2021).

The term inhibition denotes the share of the control response that was lost under treatment.

Assay [1] deals with Bone morphogenetic protein receptor type-1B (Homo sapiens) (UniProt O00238). The settings on record: Compound concentration 1000.0 nM.
Assay [2] deals with Calcium/calmodulin-dependent protein kinase type II subunit delta (Homo sapiens) (UniProt Q13557). The following applies: Compound concentration 1000.0 nM.
Assay [3] has as its target Cyclin-dependent kinase 13 (Homo sapiens) (UniProt Q14004). The settings on record: Compound concentration 1000.0 nM.
Assay [4] has as its target Cyclin-dependent kinase 2 (Homo sapiens) (UniProt P24941). The following applies: Compound concentration 1000.0 nM.
In assay [5] the target is Cyclin-dependent kinase 4 (Homo sapiens) (UniProt P11802). The settings on record: Compound concentration 1000.0 nM.
Cyclin-dependent kinase 4 (Homo sapiens), sequence (P11802 whole entry): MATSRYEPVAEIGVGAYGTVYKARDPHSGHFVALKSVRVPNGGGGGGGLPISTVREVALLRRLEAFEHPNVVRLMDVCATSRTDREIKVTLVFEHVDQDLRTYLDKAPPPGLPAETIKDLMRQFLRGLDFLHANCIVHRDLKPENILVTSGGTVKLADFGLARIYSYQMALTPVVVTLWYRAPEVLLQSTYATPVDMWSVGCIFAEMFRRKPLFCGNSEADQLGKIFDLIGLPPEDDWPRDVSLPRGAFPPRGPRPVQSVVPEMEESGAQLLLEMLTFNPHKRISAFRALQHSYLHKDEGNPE
Assay [6] addresses Mitogen-activated protein kinase kinase kinase 12 (Homo sapiens) (UniProt Q12852). The following applies: Compound concentration 1000.0 nM.
For assay [7], the target named is Tyrosine-protein kinase Fgr (Homo sapiens) (UniProt P09769). The settings on record: Compound concentration 1000.0 nM.
Tyrosine-protein kinase Fgr (Homo sapiens), sequence (P09769 2-529 limits assumed): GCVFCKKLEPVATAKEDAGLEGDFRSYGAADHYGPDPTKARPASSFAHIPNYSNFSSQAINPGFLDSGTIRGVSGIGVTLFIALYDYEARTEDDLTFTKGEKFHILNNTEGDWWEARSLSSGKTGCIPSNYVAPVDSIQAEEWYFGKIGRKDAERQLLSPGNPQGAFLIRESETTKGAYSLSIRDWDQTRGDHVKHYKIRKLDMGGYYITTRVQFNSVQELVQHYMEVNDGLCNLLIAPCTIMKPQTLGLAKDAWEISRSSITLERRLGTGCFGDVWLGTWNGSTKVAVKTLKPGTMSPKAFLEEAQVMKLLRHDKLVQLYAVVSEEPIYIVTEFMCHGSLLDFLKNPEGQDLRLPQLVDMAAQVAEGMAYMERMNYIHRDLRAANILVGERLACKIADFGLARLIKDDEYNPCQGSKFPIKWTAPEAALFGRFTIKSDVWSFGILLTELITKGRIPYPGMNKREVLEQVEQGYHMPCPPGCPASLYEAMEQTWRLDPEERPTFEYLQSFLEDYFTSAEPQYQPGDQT
Assay [8] has as its target Receptor-type tyrosine-protein kinase FLT3 (Homo sapiens) (UniProt P36888). The following applies: Compound concentration 1000.0 nM.
Assay [9] has as its target T1, Serine/threonine-protein kinase STK11 (Homo sapiens) (UniProt Q15831).
T1 sequence (whole entry): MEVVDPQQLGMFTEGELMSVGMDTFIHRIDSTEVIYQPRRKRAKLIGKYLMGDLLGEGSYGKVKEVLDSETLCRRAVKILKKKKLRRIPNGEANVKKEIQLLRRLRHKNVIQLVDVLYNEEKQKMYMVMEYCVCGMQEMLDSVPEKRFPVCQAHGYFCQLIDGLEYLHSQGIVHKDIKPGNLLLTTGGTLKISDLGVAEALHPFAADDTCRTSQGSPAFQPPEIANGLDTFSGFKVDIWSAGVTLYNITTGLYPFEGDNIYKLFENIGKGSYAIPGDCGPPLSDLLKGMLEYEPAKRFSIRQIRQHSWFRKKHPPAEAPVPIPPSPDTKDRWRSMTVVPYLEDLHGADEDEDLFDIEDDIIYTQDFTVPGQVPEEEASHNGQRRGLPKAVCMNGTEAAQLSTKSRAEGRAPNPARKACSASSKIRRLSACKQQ
The settings on record: Compound concentration 1000.0 nM.

Assay [10] addresses T2, Serine/threonine-protein kinase Nek1 (Homo sapiens) (UniProt Q96PY6).
T2 sequence (whole entry): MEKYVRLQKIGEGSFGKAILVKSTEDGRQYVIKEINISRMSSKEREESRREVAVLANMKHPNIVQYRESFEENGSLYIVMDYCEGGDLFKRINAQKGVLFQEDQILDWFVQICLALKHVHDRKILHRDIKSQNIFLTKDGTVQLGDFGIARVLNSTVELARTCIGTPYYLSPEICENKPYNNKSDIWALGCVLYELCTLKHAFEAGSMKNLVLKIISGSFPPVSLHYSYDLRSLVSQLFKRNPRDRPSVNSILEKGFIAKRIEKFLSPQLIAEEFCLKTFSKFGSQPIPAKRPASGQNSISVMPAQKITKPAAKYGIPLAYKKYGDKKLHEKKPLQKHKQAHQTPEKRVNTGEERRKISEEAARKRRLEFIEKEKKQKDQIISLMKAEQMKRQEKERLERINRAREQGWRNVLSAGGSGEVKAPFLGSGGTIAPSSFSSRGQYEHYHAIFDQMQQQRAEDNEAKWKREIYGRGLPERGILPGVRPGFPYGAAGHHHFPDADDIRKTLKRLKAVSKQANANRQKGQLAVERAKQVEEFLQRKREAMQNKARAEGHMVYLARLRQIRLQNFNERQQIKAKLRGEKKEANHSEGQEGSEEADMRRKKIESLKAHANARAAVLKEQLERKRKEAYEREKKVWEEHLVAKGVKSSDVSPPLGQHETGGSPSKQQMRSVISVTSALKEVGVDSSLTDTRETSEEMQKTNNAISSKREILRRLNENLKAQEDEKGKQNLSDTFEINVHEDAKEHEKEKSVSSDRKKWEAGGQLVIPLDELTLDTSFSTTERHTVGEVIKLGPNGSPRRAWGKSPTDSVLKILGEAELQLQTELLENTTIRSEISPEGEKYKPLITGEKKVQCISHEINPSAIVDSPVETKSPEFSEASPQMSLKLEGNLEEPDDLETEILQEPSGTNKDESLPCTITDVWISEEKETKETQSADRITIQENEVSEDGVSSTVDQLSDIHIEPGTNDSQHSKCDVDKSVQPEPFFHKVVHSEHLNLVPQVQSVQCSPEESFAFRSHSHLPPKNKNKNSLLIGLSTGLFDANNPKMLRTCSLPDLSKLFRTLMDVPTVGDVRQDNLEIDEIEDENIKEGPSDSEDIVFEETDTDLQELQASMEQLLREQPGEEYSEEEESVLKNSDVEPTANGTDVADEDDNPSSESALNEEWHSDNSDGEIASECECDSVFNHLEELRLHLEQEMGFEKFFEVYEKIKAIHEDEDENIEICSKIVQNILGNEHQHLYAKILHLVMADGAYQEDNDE
The following applies: Compound concentration 1000.0 nM.

Assay [11] concerns the target T3, Serine/threonine-protein kinase NLK (Homo sapiens) (UniProt Q9UBE8).
T3 sequence (whole entry): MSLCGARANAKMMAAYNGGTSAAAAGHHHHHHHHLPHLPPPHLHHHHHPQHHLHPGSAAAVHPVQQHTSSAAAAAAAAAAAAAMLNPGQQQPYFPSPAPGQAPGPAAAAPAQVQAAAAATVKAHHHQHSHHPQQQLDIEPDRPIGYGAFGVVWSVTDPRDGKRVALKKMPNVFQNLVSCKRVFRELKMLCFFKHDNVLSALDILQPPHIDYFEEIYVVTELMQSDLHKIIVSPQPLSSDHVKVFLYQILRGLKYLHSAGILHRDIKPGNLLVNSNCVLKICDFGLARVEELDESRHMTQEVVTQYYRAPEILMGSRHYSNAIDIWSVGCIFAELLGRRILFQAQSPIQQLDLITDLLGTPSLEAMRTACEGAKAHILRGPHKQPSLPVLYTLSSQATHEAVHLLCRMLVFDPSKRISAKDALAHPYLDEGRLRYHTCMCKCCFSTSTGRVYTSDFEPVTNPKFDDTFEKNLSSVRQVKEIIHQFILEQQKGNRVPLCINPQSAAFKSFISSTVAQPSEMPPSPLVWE
The following applies: Compound concentration 1000.0 nM.

The target of assay [12] is Phosphatidylinositol 4-phosphate 3-kinase C2 domain-containing subunit beta (Homo sapiens) (UniProt O00750). The settings on record: Compound concentration 1000.0 nM.
The target of assay [13] is Receptor-interacting serine/threonine-protein kinase 4 (Homo sapiens) (UniProt P57078). The following applies: Compound concentration 1000.0 nM.
Receptor-interacting serine/threonine-protein kinase 4 (Homo sapiens), sequence (P57078 whole entry): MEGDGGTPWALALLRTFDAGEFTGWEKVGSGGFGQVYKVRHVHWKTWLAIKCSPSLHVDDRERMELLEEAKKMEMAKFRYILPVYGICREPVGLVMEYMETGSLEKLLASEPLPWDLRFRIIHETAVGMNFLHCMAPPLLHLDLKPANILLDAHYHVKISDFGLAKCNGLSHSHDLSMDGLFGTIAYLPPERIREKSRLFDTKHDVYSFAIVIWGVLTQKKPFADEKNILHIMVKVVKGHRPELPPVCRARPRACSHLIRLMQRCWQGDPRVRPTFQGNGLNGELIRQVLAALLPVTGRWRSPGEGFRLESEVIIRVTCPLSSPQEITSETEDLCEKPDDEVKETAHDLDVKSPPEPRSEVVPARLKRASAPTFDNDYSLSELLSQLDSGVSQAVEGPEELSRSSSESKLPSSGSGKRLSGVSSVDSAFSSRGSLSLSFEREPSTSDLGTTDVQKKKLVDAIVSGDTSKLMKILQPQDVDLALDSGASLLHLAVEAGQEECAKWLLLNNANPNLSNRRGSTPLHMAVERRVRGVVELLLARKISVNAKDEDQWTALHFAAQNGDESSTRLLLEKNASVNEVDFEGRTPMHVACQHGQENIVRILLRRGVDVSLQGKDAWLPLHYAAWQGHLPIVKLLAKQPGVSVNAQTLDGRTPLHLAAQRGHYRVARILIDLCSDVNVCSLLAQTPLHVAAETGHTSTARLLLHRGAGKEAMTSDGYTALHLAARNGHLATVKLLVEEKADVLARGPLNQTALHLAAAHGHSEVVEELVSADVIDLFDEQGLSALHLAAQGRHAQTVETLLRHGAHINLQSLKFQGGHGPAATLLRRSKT
The target of assay [14] is Proto-oncogene tyrosine-protein kinase Src (Homo sapiens) (UniProt P12931). The settings on record: Compound concentration 1000.0 nM.
Assay [15] deals with Histamine H1 receptor (Homo sapiens) (UniProt P35367). The settings on record: Compound concentration 10.0 uM.
Histamine H1 receptor (Homo sapiens), sequence (P35367 whole entry): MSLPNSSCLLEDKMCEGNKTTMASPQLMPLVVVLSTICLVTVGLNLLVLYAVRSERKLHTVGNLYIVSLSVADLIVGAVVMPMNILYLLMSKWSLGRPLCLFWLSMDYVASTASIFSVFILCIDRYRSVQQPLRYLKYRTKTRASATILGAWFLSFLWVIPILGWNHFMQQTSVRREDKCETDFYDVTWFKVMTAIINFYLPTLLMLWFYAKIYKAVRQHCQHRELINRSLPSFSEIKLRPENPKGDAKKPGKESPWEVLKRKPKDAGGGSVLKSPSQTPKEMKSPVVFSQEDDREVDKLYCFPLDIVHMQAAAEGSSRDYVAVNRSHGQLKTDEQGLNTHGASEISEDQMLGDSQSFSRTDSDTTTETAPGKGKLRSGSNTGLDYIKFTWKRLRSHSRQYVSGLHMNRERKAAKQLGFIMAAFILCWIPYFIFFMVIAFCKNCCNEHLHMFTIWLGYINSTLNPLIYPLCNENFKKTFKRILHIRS

Cyclin-dependent kinase 13 (Homo sapiens), sequence (Q14004 whole entry, looked up): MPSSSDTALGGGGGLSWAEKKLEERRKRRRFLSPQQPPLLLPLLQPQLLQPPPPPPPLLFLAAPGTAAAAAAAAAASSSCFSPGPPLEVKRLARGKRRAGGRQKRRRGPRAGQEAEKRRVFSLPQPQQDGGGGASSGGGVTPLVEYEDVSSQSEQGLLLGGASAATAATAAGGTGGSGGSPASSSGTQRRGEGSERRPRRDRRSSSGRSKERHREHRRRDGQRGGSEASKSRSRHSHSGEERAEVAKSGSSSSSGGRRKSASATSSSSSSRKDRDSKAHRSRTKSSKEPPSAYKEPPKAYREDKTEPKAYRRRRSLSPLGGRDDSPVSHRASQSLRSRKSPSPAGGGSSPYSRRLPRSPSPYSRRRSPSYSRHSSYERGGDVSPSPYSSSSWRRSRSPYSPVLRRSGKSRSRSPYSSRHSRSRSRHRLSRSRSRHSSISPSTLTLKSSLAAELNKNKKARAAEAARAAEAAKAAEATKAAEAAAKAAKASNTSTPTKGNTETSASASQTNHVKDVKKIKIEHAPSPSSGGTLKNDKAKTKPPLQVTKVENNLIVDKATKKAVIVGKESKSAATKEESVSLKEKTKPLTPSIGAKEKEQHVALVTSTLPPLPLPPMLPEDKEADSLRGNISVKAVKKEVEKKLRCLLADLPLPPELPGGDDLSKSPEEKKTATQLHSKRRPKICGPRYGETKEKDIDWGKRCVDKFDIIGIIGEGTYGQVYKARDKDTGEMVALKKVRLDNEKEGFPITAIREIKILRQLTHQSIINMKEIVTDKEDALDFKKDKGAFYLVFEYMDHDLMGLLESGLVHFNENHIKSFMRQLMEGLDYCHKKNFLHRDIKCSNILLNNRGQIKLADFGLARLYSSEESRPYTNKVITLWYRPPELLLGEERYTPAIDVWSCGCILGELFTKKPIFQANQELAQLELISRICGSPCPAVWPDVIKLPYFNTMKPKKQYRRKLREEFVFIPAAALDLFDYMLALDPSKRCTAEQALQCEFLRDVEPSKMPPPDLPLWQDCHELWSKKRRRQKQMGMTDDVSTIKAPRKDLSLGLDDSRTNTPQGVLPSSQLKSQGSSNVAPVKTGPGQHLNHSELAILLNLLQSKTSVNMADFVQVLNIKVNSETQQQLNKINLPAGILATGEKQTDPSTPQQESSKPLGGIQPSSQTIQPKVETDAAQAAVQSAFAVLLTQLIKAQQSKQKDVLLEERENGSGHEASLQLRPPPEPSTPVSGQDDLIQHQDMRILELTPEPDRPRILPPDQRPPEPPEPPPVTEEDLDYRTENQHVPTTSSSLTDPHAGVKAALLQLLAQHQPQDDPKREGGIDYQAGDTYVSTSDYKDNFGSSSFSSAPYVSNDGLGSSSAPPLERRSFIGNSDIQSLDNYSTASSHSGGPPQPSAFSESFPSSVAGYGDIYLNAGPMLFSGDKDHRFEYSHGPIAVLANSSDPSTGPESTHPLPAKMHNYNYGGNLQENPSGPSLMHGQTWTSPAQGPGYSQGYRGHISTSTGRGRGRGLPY
Receptor-type tyrosine-protein kinase FLT3 (Homo sapiens), sequence (P36888 whole entry): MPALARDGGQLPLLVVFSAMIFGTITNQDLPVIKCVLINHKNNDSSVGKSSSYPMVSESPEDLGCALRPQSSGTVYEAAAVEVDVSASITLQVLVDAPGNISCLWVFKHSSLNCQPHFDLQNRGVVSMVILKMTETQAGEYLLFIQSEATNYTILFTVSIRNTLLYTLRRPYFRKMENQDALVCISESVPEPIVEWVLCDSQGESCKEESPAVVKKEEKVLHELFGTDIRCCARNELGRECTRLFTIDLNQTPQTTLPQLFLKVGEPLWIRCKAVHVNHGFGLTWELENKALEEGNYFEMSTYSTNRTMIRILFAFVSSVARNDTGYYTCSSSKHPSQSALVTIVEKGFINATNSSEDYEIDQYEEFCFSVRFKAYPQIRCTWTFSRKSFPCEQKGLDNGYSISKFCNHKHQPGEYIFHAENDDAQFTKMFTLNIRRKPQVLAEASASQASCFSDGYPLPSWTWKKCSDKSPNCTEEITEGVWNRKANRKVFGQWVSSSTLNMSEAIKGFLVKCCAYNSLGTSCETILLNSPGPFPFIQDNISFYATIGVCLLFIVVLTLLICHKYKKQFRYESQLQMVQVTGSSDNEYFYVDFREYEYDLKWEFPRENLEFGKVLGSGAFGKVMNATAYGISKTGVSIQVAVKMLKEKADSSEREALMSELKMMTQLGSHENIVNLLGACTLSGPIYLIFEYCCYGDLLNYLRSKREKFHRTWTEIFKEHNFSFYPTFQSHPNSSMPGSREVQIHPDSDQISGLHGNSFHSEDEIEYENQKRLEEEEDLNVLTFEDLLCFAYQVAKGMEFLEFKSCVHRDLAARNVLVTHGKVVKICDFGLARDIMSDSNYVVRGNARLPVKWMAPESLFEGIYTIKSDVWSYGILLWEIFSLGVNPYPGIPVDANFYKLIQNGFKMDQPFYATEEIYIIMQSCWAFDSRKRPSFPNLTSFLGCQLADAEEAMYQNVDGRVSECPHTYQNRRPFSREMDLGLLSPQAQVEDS

On to `CC1=C(C#N)C(c2ccc3c(c2)c(NC(=O)c2ccccc2C)nn3C)C(C#N)=C(C)N1` [BAY-974], for which the residual activity was 91% in [1]; 100% in [2]; 87% in assay [3]; 86% in assay [4]; 100% in assay [5]; 80% in [6]. Moreover, the residual activity was 92% in [7]; 90% in assay [8]; 89% in assay [9]; 100% in assay [10]; 100% in assay [11]; 76% in [12]. Further, the residual activity in assay [13] is 78%; in assay [14] it was 89%. Besides, the inhibition in [15] was 0.94%.

Take `CCc1ccccc1C(=O)Nc1n[nH]c2c(C)c(F)c(C3C(C#N)=C(C)N(C)C(C)=C3C#N)cc12` [BAY-3827]: the residual activity in assay [1] was 96%; in [2] it was 78%; in [3] it was 100%; in assay [4] it was 100%; in assay [5], 98%; in assay [6], 94%. The residual activity in assay [7] is 51%; in assay [8], 16%; in [9], 100%; in assay [10] it was 100%; in assay [11], 100%; in assay [12], 100%. The figures for the residual activity in assay [13] and in assay [14] were 92% and 94%, respectively. Besides, in [15], the inhibition was 6.23%.
